Values quoted from earlier work as cited in patent publication US11878910B2, “Ph-based structural change of water soluble carbon nanoparticles for encapsulation and release of therapeutic agents in biological systems” (SINON THERAPEUTICS INC., priority 2015, dated 2024).

Question: With C1=Cc2nc1c(-c1ccccc1)c1nc(c(-c3ccccc3)c3ccc([nH]3)c(-c3ccccc3)c3ccc([nH]3)c2-c2ccccc2)C=C1 [TPP, tetraphenylporphyrin] as the compound, how does the solubility in water read?
Answer: insoluble
